Measured values from patent publication US20240270762A1, “PENICILLIN-BINDING PROTEIN INHIBITORS” (priority 2021, published 2024).
In brackets after ≈: the same amount, converted by molar mass.

Legend:
E. coli ATCC 25922 = assay: microbe, parasite or virus in culture; assay type: cell-based; settings: Escherichia coli, ATCC25922, read-out: MIC E. coli 25922
A. baumannii ATCC 19606 = assay: microbe, parasite or virus in culture; assay type: cell-based; settings: Acinetobacter baumannii, ATCC19606, read-out: MIC, A. baumannii ATCC 19606
[1] = test system: N. gonorrhoeae ATCC 49226; assay: Liquid broth MIC in Fastidious broth; settings: Neisseria gonorrhoeae, ATCC49226, read-out: Minimum Inhibitory Concentration (MIC), N. gonorrhoeae ATCC 49226
E. coli AG100A = assay: Broth microdilution MIC in CAMHB; assay type: cell-based; settings: Escherichia coli, read-out: MIC E. coli AG100A
N. gonorrhoeae WHO M = assay: Liquid broth MIC in Fastidious broth; settings: Neisseria gonorrhoeae, read-out: Minimum Inhibitory Concentration (MIC), N. gonorrhoeae WHO M
[2] = target: T1, PBP3 from Escherichia coli (K-12) (Escherichia coli, UniProt P0AD68); assay: Bocillin-FL fluorescence polarization competition binding, E. coli PBP3
T1 construct: made in house
T1 sequence (P0AD68 1-577): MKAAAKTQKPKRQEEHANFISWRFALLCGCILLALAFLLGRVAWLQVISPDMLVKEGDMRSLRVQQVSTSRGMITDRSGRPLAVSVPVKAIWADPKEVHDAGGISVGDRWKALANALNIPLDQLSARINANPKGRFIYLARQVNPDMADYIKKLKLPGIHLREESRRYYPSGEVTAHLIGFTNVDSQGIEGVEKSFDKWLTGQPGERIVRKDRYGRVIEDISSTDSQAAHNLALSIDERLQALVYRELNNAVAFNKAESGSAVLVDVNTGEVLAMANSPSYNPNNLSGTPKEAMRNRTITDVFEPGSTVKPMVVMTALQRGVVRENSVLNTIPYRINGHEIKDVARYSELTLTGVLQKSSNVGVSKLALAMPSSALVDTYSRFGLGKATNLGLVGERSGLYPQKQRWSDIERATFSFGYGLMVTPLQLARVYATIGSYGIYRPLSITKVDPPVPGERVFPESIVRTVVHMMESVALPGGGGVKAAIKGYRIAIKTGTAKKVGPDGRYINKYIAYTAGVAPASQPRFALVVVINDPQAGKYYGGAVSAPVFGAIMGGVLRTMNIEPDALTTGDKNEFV
In short: (§1)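 Purified PBP was preincubated with inhibitor (E. coli PBP3 1.5 μM, 30 min; P. aeruginosa PBP3 0.75 μM, A. baumannii PBP3 0.2 μM and PBP1a 1 μM, 15 min), then Bocillin-FL (0.1 μM; 0.05 μM for PBP1a) added and FP read up to 60 min. EC50 = 50% loss of bound probe.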

N. gonorrhoeae WHO Q = assay: Liquid broth MIC in Fastidious broth; settings: Neisseria gonorrhoeae, read-out: Minimum Inhibitory Concentration (MIC), N. gonorrhoeae WHO Q
N. gonorrhoeae CDC-0197 = assay: Liquid broth MIC in Fastidious broth; settings: Neisseria gonorrhoeae, CDC0197, read-out: Minimum Inhibitory Concentration (MIC), N. gonorrhoeae CDC-0197
K. pneumoniae 848844 = assay: microbe, parasite or virus in culture; assay type: cell-based; settings: Klebsiella pneumoniae, 848844, read-out: MIC K. pneumoniae 848844
[3] = target: T2, PBP3 from Pseudomonas aeruginosa (PAO1) (Pseudomonas aeruginosa, UniProt G3XD46); assay: Bocillin-FL fluorescence polarization competition binding, P. aeruginosa PBP3; settings: Binding affinity to P. aeruginosa PBP3; fluorescence polarization competition binding assay using Bocillin-FL; read-out: P. aeruginosa PBP3 Potency
T2 construct: made in house
T2 sequence (G3XD46 whole entry): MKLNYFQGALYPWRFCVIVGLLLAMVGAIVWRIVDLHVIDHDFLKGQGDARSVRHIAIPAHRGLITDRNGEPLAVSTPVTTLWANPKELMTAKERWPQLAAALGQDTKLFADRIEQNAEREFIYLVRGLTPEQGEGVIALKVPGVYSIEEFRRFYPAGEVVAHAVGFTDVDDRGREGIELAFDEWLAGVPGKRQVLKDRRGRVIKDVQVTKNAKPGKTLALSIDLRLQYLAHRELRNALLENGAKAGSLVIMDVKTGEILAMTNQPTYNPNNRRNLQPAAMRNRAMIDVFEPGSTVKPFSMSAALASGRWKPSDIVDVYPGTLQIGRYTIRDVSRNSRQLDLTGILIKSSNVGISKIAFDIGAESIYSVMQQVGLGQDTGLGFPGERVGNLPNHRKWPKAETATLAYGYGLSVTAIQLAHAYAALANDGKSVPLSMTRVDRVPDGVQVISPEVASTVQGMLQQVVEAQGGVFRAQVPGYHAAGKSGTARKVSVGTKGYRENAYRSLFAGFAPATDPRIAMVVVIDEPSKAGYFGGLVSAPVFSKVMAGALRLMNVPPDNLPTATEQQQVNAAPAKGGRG
In short: as §1

N. gonorrhoeae WHO X = assay: Liquid broth MIC in Fastidious broth; settings: Neisseria gonorrhoeae, read-out: Minimum Inhibitory Concentration (MIC), N. gonorrhoeae WHO X
Protocol: Liquid broth-based assays were used for antibacterial testing of PBP inhibitors in Neisseria gonorrhoeae. Briefly, cryo-preserved bacterial cultures of clinical strains were streaked for isolation on Chocolate Agar (72 g/L (2×) GC Agar Base (BD #228950) and 2% (2×) Hemoglobin was autoclaved at 121° C. for 20 minutes to sterilize. Once cooled to ˜50° C. the 2×GC Agar Base and 2× Hemoglobin solutions are combined and 1% IsoVitaleX Enrichment (BD #211876) was added to the solution). Strains were incubated at 36° C. and 5% CO2 to allow growth of colonies, 24 hours before inoculum preparation. 2-fold serial dilutions of test compounds were conducted in a 96 well plate with a final volume of 75 μL per well at 2-fold the final desired concentration in Fastidious broth (Remel #R07664). For preparation of assay inoculum, a direct suspension was prepared by aseptically swabbing 10-15 colonies from agar plates into culture tubes containing 2 mL of fresh sterile saline. After the dilution plates were set up, direct suspensions were then diluted in a cuvette containing sterile saline and the optical density was measured at 600 nm. Inocula were diluted such that 75 μL of this culture in Fastidious broth results in a starting bacterial concentration of 5×10^5 CFU/mL when added to the dilution plates. The plates were incubated for ˜24 hours at 36° C. and 5% CO2.

[4] = test system: P. aeruginosa (ΔmexAB-oprM); assay: Broth microdilution MIC in CAMHB; assay type: cell-based; settings: Pseudomonas aeruginosa; read-out: MIC P. aeruginosa ΔmexAB-oprM

Row | Structure (SMILES) | MIC (E. coli ATCC 25922) | MIC (A. baumannii ATCC 19606) | MIC [1] | MIC (E. coli AG100A) | MIC (N. gonorrhoeae WHO M) | EC50 [2] | MIC (N. gonorrhoeae WHO Q) | MIC (N. gonorrhoeae CDC-0197) | MIC (K. pneumoniae 848844) | IC50 [3] | MIC (N. gonorrhoeae WHO X) | MIC [4]
1 | CN1CCN(C(=O)NC(C(=O)N[C@H]2Cc3cccc(C(=O)O)c3OB2O)c2ccc(P(=O)(O)O)cc2)C1=O (stereo partly drawn) [Example 41, (3R)-2-hydroxy-3-(2-(3-methyl-2-oxoimidazolidine-1-carboxamido)-2-(4-phosphonophenyl)acetamido)-3,4-dihydro-2H-benzo[e][1,2]oxaborinine-8-carboxylic acid] | 32 to 64 µg/mL (≈ 58.6 to 117 µM) | 32 to 64 µg/mL (≈ 58.6 to 117 µM) | < 1 µg/mL | 8 to 16 µg/mL (≈ 14.6 to 29.3 µM) | < 1 µg/mL | < 10 µM | < 1 µg/mL | < 1 µg/mL | > 128 µg/mL | < 10 µM | 1 to 2 µg/mL (≈ 1.83 to 3.66 µM) | 8 to 16 µg/mL (≈ 14.6 to 29.3 µM)
2 | CCN1CCN(C(=O)NC(C(=O)N[C@H]2Cc3cccc(C(=O)O)c3OB2O)c2ccc(P(=O)(O)O)cc2)C1=O (stereo partly drawn) [Example 42, (3R)-3-(2-(3-ethyl-2-oxoimidazolidine-1-carboxamido)-2-(4-phosphonophenyl)acetamido)-2-hydroxy-3,4-dihydro-2H-benzo[e][1,2]oxaborinine-8-carboxylic acid] | 32 to 64 µg/mL (≈ 57.1 to 114 µM) | 32 to 64 µg/mL (≈ 57.1 to 114 µM) | < 1 µg/mL | 8 to 16 µg/mL (≈ 14.3 to 28.6 µM) | < 1 µg/mL | < 10 µM | < 1 µg/mL | < 1 µg/mL | > 128 µg/mL | < 10 µM | 1 to 2 µg/mL (≈ 1.78 to 3.57 µM) | 8 to 16 µg/mL (≈ 14.3 to 28.6 µM)
3 | CS(=O)(=O)N1CCC[C@H]1C(=O)N[C@H](C(=O)N[C@H]1Cc2cccc(C(=O)O)c2OB1O)c1ccc(P(=O)(O)O)cc1 [Example 43, (R)-2-hydroxy-3-((S)-2-((S)-1-(methylsulfonyl)pyrrolidine-2-carboxamido)-2-(4-phosphonophenyl)acetamido)-3,4-dihydro-2H-benzo[e][1,2]oxaborinine-8-carboxylic acid] | > 128 µg/mL | > 128 µg/mL | 4 to 8 µg/mL (≈ 6.72 to 13.4 µM) | > 128 µg/mL | 1 to 2 µg/mL (≈ 1.68 to 3.36 µM) | 50 to 250 µM | 4 to 8 µg/mL (≈ 6.72 to 13.4 µM) | 1 to 2 µg/mL (≈ 1.68 to 3.36 µM) | > 128 µg/mL | 50 to 250 µM | 16 to 32 µg/mL (≈ 26.9 to 53.8 µM) | > 128 µg/mL
4 | CS(=O)(=O)N1CCC[C@H]1C(=O)N[C@@H](C(=O)N[C@H]1Cc2cccc(C(=O)O)c2OB1O)c1ccc(P(=O)(O)O)cc1 [Example 44, (R)-2-hydroxy-3-((R)-2-((S)-1-(methylsulfonyl)pyrrolidine-2-carboxamido)-2-(4-phosphonophenyl)acetamido)-3,4-dihydro-2H-benzo[e][1,2]oxaborinine-8-carboxylic acid] | > 128 µg/mL | > 128 µg/mL | 1 to 2 µg/mL (≈ 1.68 to 3.36 µM) | 32 to 64 µg/mL (≈ 53.8 to 108 µM) | < 1 µg/mL | 10 to 50 µM | 1 to 2 µg/mL (≈ 1.68 to 3.36 µM) | 1 to 2 µg/mL (≈ 1.68 to 3.36 µM) | > 128 µg/mL | < 10 µM | 16 to 32 µg/mL (≈ 26.9 to 53.8 µM) | 32 to 64 µg/mL (≈ 53.8 to 108 µM)
5 | CS(=O)(=O)N1CCN(C(=O)NC(C(=O)N[C@H]2Cc3cccc(C(=O)O)c3OB2O)c2ccc(P(=O)(O)O)c(F)c2O)C1=O (stereo partly drawn) [Example 48, (3R)-3-(2-(3-fluoro-2-hydroxy-4-phosphonophenyl)-2-(3-(methylsulfonyl)-2-oxoimidazolidine-1-carboxamido)acetamido)-2-hydroxy-3,4-dihydro-2H-benzo[e][1,2]oxaborinine-8-carboxylic acid] | > 128 µg/mL | > 128 µg/mL | < 1 µg/mL | > 128 µg/mL | < 1 µg/mL | 10 to 50 µM | 1 to 2 µg/mL (≈ 1.55 to 3.1 µM) | 1 to 2 µg/mL (≈ 1.55 to 3.1 µM) | > 128 µg/mL | 10 to 50 µM | 16 to 32 µg/mL (≈ 24.8 to 49.7 µM) | > 128 µg/mL
6 | O=C(O)c1cccc2c1OB(O)[C@@H](NC(=O)C(NC(=O)[C@H]1CCCN1)c1ccc(P(=O)(O)O)cc1)C2 (stereo partly drawn) [Example 52, (3R)-2-hydroxy-3-(2-(4-phosphonophenyl)-2-((R)-pyrrolidine-2-carboxamido)acetamido)-3,4-dihydro-2H-benzo[e][1,2]oxaborinine-8-carboxylic acid] | > 128 µg/mL | > 128 µg/mL | 16 to 32 µg/mL (≈ 30.9 to 61.9 µM) | 32 to 64 µg/mL (≈ 61.9 to 124 µM) | 16 to 32 µg/mL (≈ 30.9 to 61.9 µM) | > 250 µM | 16 to 32 µg/mL (≈ 30.9 to 61.9 µM) | 16 to 32 µg/mL (≈ 30.9 to 61.9 µM) | > 128 µg/mL | 50 to 250 µM | 16 to 32 µg/mL (≈ 30.9 to 61.9 µM) | > 128 µg/mL
7 | O=C1CC[C@H](C(=O)NC(C(=O)N[C@H]2Cc3cccc(C(=O)O)c3OB2O)c2ccc(P(=O)(O)O)cc2)N1 (stereo partly drawn) [Example 53, (3R)-2-hydroxy-3-(2-((R)-5-oxopyrrolidine-2-carboxamido)-2-(4-phosphonophenyl)acetamido)-3,4-dihydro-2H-benzo[e][1,2]oxaborinine-8-carboxylic acid] | > 128 µg/mL | > 128 µg/mL | 1 to 2 µg/mL (≈ 1.88 to 3.76 µM) | > 128 µg/mL | 1 to 2 µg/mL (≈ 1.88 to 3.76 µM) | 50 to 250 µM | 16 to 32 µg/mL (≈ 30.1 to 60.2 µM) | 4 to 8 µg/mL (≈ 7.53 to 15.1 µM) | > 128 µg/mL | 10 to 50 µM | 16 to 32 µg/mL (≈ 30.1 to 60.2 µM) | > 128 µg/mL
8 | O=C(O)c1cccc2c1OB(O)[C@@H](NC(=O)C(NC(=O)N1CCCNC1=O)c1ccc(P(=O)(O)O)cc1)C2 (stereo partly drawn) [Example 56, (3R)-2-hydroxy-3-(2-(2-oxohexahydropyrimidine-1-carboxamido)-2-(4-phosphonophenyl)acetamido)-3,4-dihydro-2H-benzo[e][1,2]oxaborinine-8-carboxylic acid] | > 128 µg/mL | > 128 µg/mL | 1 to 2 µg/mL (≈ 1.83 to 3.66 µM) | 32 to 64 µg/mL (≈ 58.6 to 117 µM) | < 1 µg/mL | 10 to 50 µM | 4 to 8 µg/mL (≈ 7.32 to 14.6 µM) | 4 to 8 µg/mL (≈ 7.32 to 14.6 µM) | > 128 µg/mL | < 10 µM | 16 to 32 µg/mL (≈ 29.3 to 58.6 µM) | > 128 µg/mL
9 | O=C(O)c1cccc2c1OB(O)[C@@H](NC(=O)C(NC(=O)N1CCCC1=O)c1ccc(P(=O)(O)O)cc1)C2 (stereo partly drawn) [Example 57, (3R)-2-hydroxy-3-(2-(2-oxopyrrolidine-1-carboxamido)-2-(4-phosphonophenyl)acetamido)-3,4-dihydro-2H-benzo[e][1,2]oxaborinine-8-carboxylic acid] | > 128 µg/mL | > 128 µg/mL | < 1 µg/mL | 32 to 64 µg/mL (≈ 60.2 to 120 µM) | < 1 µg/mL | 10 to 50 µM | 1 to 2 µg/mL (≈ 1.88 to 3.76 µM) | < 1 µg/mL | > 128 µg/mL | < 10 µM | 4 to 8 µg/mL (≈ 7.53 to 15.1 µM) | > 128 µg/mL
10 | NS(=O)(=O)NC(C(=O)N[C@H]1Cc2cccc(C(=O)O)c2OB1O)c1ccc(P(=O)(O)O)cc1 (stereo partly drawn) [Example 58, (3R)-2-hydroxy-3-(2-(4-phosphonophenyl)-2-(sulfamoylamino)acetamido)-3,4-dihydro-2H-benzo[e][1,2]oxaborinine-8-carboxylic acid] | > 128 µg/mL | > 128 µg/mL | 16 to 32 µg/mL (≈ 32.1 to 64.1 µM) | > 128 µg/mL | 16 to 32 µg/mL (≈ 32.1 to 64.1 µM) | > 250 µM | 16 to 32 µg/mL (≈ 32.1 to 64.1 µM) | 16 to 32 µg/mL (≈ 32.1 to 64.1 µM) | > 128 µg/mL | > 250 µM | 16 to 32 µg/mL (≈ 32.1 to 64.1 µM) | > 128 µg/mL
